The values that follow come from ChEMBL document CHEMBL1201862, “PubChem BioAssay data set” (2004).

Common to all, as to assay: NCI anticancer screen, dose series, 48 h
Assay [1] concerns UACC-62.
Assay [2] concerns SR.
For assay [3], the system named is NCI-H460.
Assay [4] has as its system NCI-H522.
Assay [5] concerns M14.
Assay [6] deals with SK-MEL-5.
Assay [7] deals with NCI-H226.
Assay [8] concerns UO-31.
In assay [9] the test system is Hs-578T.
Assay [10] relates to KM12.
The test system of assay [11] is OVCAR-4.
Assay [12] relates to ACHN.
Assay [13] concerns HOP-92.
In assay [14] the test system is NCI-H23.
The test system of assay [15] is OVCAR-8.
The test system of assay [16] is T47D.
Assay [17] has as its system BT-549.
In assay [18] the test system is MOLT-4.
Assay [19] deals with TK-10.
Assay [20] relates to A498.

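Five concentrations, 48 hours, 96-well plates. GI50 marks 50% less growth.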 Calls of active or inactive are those of the source. Cut-off read from the data, not from the text of the source: active = GI50 up to about 1.1 µM and inactive = higher. Where a SMILES comes first, the peptide text is derived from it. The star is where a group is joined. Fmoc = O=C(OCC1c2ccccc2-c2ccccc21)*; Boc = CC(C)(C)OC(=O)*

Consider `O=C1CS(=O)(=O)C(c2cccc(Oc3ccccc3)c2)N1c1cccc(Cl)c1` (stereo not given), for which the GI50 in [1] is 12.5 µM (inactive); in assay [2], 12.1 µM (inactive); in [3], 18.1 µM (inactive); in [4], 14.9 µM (inactive); in [5] it was 26.7 µM (inactive); in assay [6], 15.7 µM (inactive). Besides, the GI50 in assay [7] was 27.7 µM (inactive); in [8], 37.1 µM (inactive); in assay [9], 27.5 µM (inactive); in assay [10], 26.5 µM (inactive); in assay [11], 26.5 µM (inactive); in assay [12], 24.3 µM (inactive). Further, the GI50 in assay [13] was 11.6 µM (inactive); in assay [14], 33.5 µM (inactive); in [15], 22.1 µM (inactive); in assay [16] it was 16.9 µM (inactive); in assay [17], 29.9 µM (inactive); in [18], 19.1 µM (inactive). For the same compound, in [19], the GI50 is 26.6 µM (inactive).

`N#Cc1sc2c(c1OC(=O)c1cccs1)c(=O)n(-c1ccccc1)c(=S)n2-c1ccccc1`: the GI50 is 17.2 µM (inactive) in assay [1]; 25.6 µM (inactive) in assay [2]; 28.2 µM (inactive) in [3]; 16.4 µM (inactive) in assay [4]; 19.1 µM (inactive) in assay [5]; 16 µM (inactive) in assay [6]. Further, the GI50 in assay [7] was 19.5 µM (inactive); in assay [8] it was 16.1 µM (inactive); in [9], 15.2 µM (inactive); in assay [10], 18.9 µM (inactive); in assay [11] it was 20.7 µM (inactive); in assay [14] it was 25.3 µM (inactive). For the same compound, the GI50 in assay [15] is 25.9 µM (inactive); in assay [16], 10.9 µM (inactive); in assay [17], 15.5 µM (inactive); in assay [18], 19.4 µM (inactive); in assay [19] it was 31 µM (inactive).

For `c1ccc2c(c1)cc1n2CCc2c-1[nH]c1ccccc21`, the GI50 in assay [1], in [2], in [3], in [4], in assay [5] and in [6] was > 10 µM (inactive) each time. In addition, the GI50 in [7], in assay [8], in assay [9], in assay [10], in [11] and in [12] was > 10 µM (inactive) each time. Moreover, the GI50 was > 10 µM (inactive) in assay [13]; > 10 µM (inactive) in assay [14]; > 10 µM (inactive) in [15]; 3.01 µM (inactive) in assay [16]; > 10 µM (inactive) in assay [17]; > 10 µM (inactive) in [18]. Moreover, the GI50 in [19] was > 10 µM (inactive).

`CC1=CC(C)C/C=C/C2C3OC3(C)C(C)C3C(Cc4c[nH]c5ccccc45)NC(=O)C23C(=O)C=CC(=O)C1O` (stereo not given): the GI50 is 15.2 µM (inactive) in [1]; 12.8 µM (inactive) in assay [3]; 1.4 µM (inactive) in assay [4]; 3.57 µM (inactive) in assay [5]; 10.7 µM (inactive) in assay [6]; 12.9 µM (inactive) in assay [7]. Moreover, the GI50 is 1.96 µM (inactive) in assay [8]; 3.72 µM (inactive) in [9]; 15.2 µM (inactive) in assay [10]; 0.213 µM (active) in assay [20]; 11.8 µM (inactive) in assay [11]; 1.35 µM (inactive) in assay [12]. In addition, the GI50 was 0.9 µM (active) in assay [13]; 14.5 µM (inactive) in [14]; 19.5 µM (inactive) in [15]; 1.65 µM (inactive) in [16]; 4.56 µM (inactive) in assay [17]; 2.01 µM (inactive) in assay [18]. Besides, the GI50 in [19] was 1.53 µM (inactive).

Regarding `C[C@]12CCC(=O)C=C1CC[C@@H]1[C@@H]2CC[C@]2(C)C(=O)/C(=C/c3ccncc3)C[C@@H]12`, the GI50 in assay [1] was 12.7 µM (inactive); in assay [2] it was 4.75 µM (inactive); in [3], 12.3 µM (inactive); in [4] it was 15.3 µM (inactive); in assay [5], 14.6 µM (inactive); in [6] it was 8.97 µM (inactive). For the same compound, the GI50 is 16.9 µM (inactive) in assay [7]; 12.6 µM (inactive) in [8]; 29.8 µM (inactive) in [9]; 13.4 µM (inactive) in assay [10]; 17.2 µM (inactive) in assay [11]; 14.8 µM (inactive) in [12]. Besides, the GI50 is 19.1 µM (inactive) in assay [13]; 18.3 µM (inactive) in [14]; 23.3 µM (inactive) in assay [15]; 15.9 µM (inactive) in assay [16]; 19.2 µM (inactive) in assay [17]; 16.4 µM (inactive) in assay [18]. The GI50 in assay [19] is 18.1 µM (inactive).

Consider `O=C1C(Cl)=C(Cl)C(=O)C2=C1C1c3ccccc3C2c2ccccc21`, for which the GI50 in [1] is 30.5 µM (inactive); in [3], 32.5 µM (inactive); in assay [4], 18.7 µM (inactive); in [5] it was 62.7 µM (inactive); in assay [6], > 100 µM (inactive); in assay [7], > 100 µM (inactive). The GI50 in assay [8] was 47.6 µM (inactive); in assay [9], 39.4 µM (inactive); in [10], 59 µM (inactive); in [20] it was > 100 µM (inactive); in assay [11], 34.3 µM (inactive); in [12] it was 43.2 µM (inactive). Besides, the GI50 in assay [13] was 19.5 µM (inactive); in assay [14] it was 46.3 µM (inactive); in assay [15] it was > 100 µM (inactive); in assay [16], 25.3 µM (inactive); in assay [17] it was 14.8 µM (inactive); in assay [18], > 100 µM (inactive). The GI50 in assay [19] is 83.9 µM (inactive).

Take `CC(C)(C)OC(=O)NCCCCC(NC(=O)C(Cc1c[nH]c2ccccc12)NC(=O)OCC1c2ccccc2-c2ccccc21)C(=O)O` (stereo not given) (Fmoc-Trp-Lys(Boc)-OH; configuration not given here): the GI50 in assay [1] was 20.9 µM (inactive); in [2], 21.9 µM (inactive); in assay [3], 34.7 µM (inactive); in assay [5], 77.3 µM (inactive); in assay [6] it was 90.2 µM (inactive); in [7], 43.7 µM (inactive). The GI50 was 68.7 µM (inactive) in assay [8]; 30.3 µM (inactive) in assay [9]; 47.8 µM (inactive) in assay [10]; 33.7 µM (inactive) in [11]; > 100 µM (inactive) in assay [12]; 23.8 µM (inactive) in assay [13]. In addition, the GI50 was 31 µM (inactive) in [14]; 44.4 µM (inactive) in [15]; 54.7 µM (inactive) in [16]; 35.6 µM (inactive) in assay [17]; 19.8 µM (inactive) in assay [18]; > 100 µM (inactive) in [19].
